Data set [1] relates to T-Rex 293 cell line SC3 cells having increased expression of androgen receptor protein due to exposure to doxycycline. Nature of the data set: Cellular growth inhibition, T-Rex 293 SC3 cells with doxycycline-induced androgen receptor (CellTiter-Glo 2.0, 72 hours). Conditions: for Ratio of GI50's: GI50 of the top compound in the pair divided by GI50 of the lower compound, T-Rex 293 SC3 cells with doxycycline-induced androgen receptor; for GI50: T-Rex 293 SC3 cells with 10 ng/ml doxycycline (increased androgen receptor expression), 72 hours, CellTiter-Glo 2.0. Type of data set: cell-based.

Data set [2] deals with T1, androgen receptor and BRD4 protein (Homo sapiens, UniProt O60885+P10275).
T1 construct: Tumors obtained from the Castrate VCaP Model were lysed; from tissue; host or cells: VCaP tumour xenografts grown in castrated CB17.SCID mice
In words: Tumor TR-FRET trimer assay on tumors of the PK/PD Castrate VCaP model. Type of data set: in vivo, CB17.SCID mice. The conditions noted are these: PK/PD Castrate VCaP Tumor Xenograft Model; Compound II-5 and Compound B at the same dose and dosing frequency, FIG. 20. On the procedure: 5M VCaP cells were subcutaneously implanted into CB17.SCID mice in 50% Matrigel (Corning). Mice were castrated under anesthesia once tumor volumes reached 100 mm^3. Tumors were then allowed to reach an average of approximately 150 mm^3 before randomization into efficacy arms. Tumors were measured twice weekly for Tumor Growth Inhibition (TGI) calculation. For PK/PD analysis, tumors were allowed to reach an average of 400 mm^3, before dosing the mice with test compound by oral gavage (n=5) for seven days. Mice were sacrificed 24 hours following the final dose, and tumors were harvested for downstream analysis. Plasma samples were collected from all dosed mice 2 hours following the final dose to determine test compound exposure by LC-MS/MS. […] the United States Food and Drug Administration for treatment of prostate cancer ([…]).
Tumors obtained from the Castrate VCaP Model were lysed in Cell Signaling Technology lysis buffer supplemented with protease/phosphatase inhibitors and nuclease. Each tumor was lysed in 10 μL of lysis buffer per mg of tumor and placed in a TissueLyser for 4 minutes at 20 Hz. Each sample was spun down at 16000×g for 10 minutes, the supernatant was removed, and a BCA assay was run to quantify the total protein concentration in each sample. In a white opaque 384 well plate each sample was diluted in supplemented CST lysis buffer to 48 and 24 μg of protein in a total volume of 16 μL. 4 μL of a 1:1 mixture of anti-androgen receptor and anti-BRD4 antibodies with donor and acceptor fluorophores were mixed into each well containing tumor samples. The plate was spun down at 300×g for one minute, placed on a plate shaker at 400 RPM for 10 minutes, spun down at 300×g for one minute, then sealed with a plate seal and stored overnight. Approximately 16 hours after adding antibodies, the plate was read on an Envision plate reader. The ratiometric value of each well was calculated by dividing the acceptor signal by the donor signal and multiplying by 10,000.
(TR-FRET usually uses a lanthanide donor and a delayed reading to cut background.)

The test system of a further data set is VCaP cells. Nature of the data set: Cellular growth inhibition assay for VCaP cells (CellTiter-Glo 2.0, 72 hours). Type of data set: cell-based, human. The conditions noted are these: for Ratio of GI50's: GI50 of the top compound in the pair divided by GI50 of the lower compound; for GI50: CellTiter-Glo 2.0. In general terms: In ATP-based viability assays light output follows the ATP content of the culture.

Another data set concerns T47D cells. In words: Cellular growth inhibition assay for T47D cells (CellTiter-Glo 2.0, 72 hours). Type of data set: cell-based, human. On the procedure:
Exemplary compounds were tested for ability to inhibit the proliferation of T47D cells. T47D cells are a commercially available human breast cancer cell line.
T47D cells were purchased from American Type Cell Culture (ATCC Cat #HTB-133) and then seeded on poly-D-lysine coated, black clear-bottom 384-well plates at 3000/well in 25 μL Dulbecco's Modified Eagle Medium (DMEM) supplemented with 10% w/w Fetal bovine serum (FBS), 0.2 units/mL recombinant human insulin (Gibco Cat #12585014), and 1% w/w Pen-Strep. Pen-Strep is a commercially available mixture of penicillin G and streptomycin, which is used in mammalian cell culture media to prevent bacterial contamination. Dulbecco's Modified Eagle Medium (DMEM) supplemented with 10% w/w fetal bovine serum (FBS), 0.2 units/mL recombinant human insulin, and 1% w/w Pen-Strep is herein referred to as Treatment Medium. Following seeding of cells in the plates, the plates were spun at 300×g for 30 seconds, then equilibrated to room temperature for 30 minutes, and then deposited in a humidified tissue culture incubator maintained at 37° C. with 5% CO2.
At 24 hours after seeding of the cells, dilutions of test compound were prepared in DMSO and dissolved in Treatment Medium, to achieve a final DMSO concentration of 0.5% w/w, thereby providing the Test Compound Solution. A 25 μL aliquot of the Test Compound Solution was added to cells in the well plates. An equal volume of a solution containing DMSO and Treatment Medium was used as a negative control. Following treatment of cells with Test Compound Solution or said equal volume of a solution containing DMSO and Treatment Medium, the plates were spun at 300×g for 30 seconds, and then left in an incubator for 72 hours.
At the end of the treatment duration, cell viability was quantified with CellTiter-Glo 2.0 reagent (Promega Cat #G9243). For this purpose, plates were equilibrated to room temperature for 30 minutes, and then 25 μL of CellTiter-Glo 2.0 reagent was added to cells in the plate wells. Plates were then agitated on a shaker for two minutes at 500 rpm and subsequently incubated at room temperature for 10 minutes. Following incubation, the plates were spun at 3000×g for 30 seconds, then sealed with an optical adhesive cover, and luminescence readings were measured with an En Vision Plate Reader (Perkin Elmer).
Data was normalized using zero luminescence for baseline. A four-parameter non-linear regression curve fit was applied to dose-response data in GraphPad Prism data analysis software to determine the half-maximal growth inhibitory concentration (GI50) for each test compound.

In data set [3] the test system is T-Rex 293 cell line SC3 cells lacking increased expression of androgen receptor protein. In words: Cellular growth inhibition, T-Rex 293 SC3 cells without doxycycline (CellTiter-Glo 2.0, 72 hours). Conditions: T-Rex 293 SC3 cells not exposed to doxycycline (no increased androgen receptor expression). Type of data set: cell-based.
Data set [4] in a line: Stability analysis of Crystal Form A and Crystal Form B in solvent suspensions (XRPD). The data set is classed as physicochemical. The conditions noted are these: suspensions in EtOH, Acetone, Acetonitrile, THF/Heptane at 25° C. and 50° C. for 1 week. On the procedure: The obtained suspensions were stirred at 25° C. and 50° C. for 1 week, respectively. Solid parts (wet cakes) were isolated by centrifugation filtration at […] temperature and investigated by XRPD.

Where two headings read alike, the source gives them in different places.

By GI50 is commonly meant the concentration at which growth is held to half of that of the control. A higher GI50 goes with lower sensitivity of the cells.

T1 sequence (P10275 whole entry, other chains not shown): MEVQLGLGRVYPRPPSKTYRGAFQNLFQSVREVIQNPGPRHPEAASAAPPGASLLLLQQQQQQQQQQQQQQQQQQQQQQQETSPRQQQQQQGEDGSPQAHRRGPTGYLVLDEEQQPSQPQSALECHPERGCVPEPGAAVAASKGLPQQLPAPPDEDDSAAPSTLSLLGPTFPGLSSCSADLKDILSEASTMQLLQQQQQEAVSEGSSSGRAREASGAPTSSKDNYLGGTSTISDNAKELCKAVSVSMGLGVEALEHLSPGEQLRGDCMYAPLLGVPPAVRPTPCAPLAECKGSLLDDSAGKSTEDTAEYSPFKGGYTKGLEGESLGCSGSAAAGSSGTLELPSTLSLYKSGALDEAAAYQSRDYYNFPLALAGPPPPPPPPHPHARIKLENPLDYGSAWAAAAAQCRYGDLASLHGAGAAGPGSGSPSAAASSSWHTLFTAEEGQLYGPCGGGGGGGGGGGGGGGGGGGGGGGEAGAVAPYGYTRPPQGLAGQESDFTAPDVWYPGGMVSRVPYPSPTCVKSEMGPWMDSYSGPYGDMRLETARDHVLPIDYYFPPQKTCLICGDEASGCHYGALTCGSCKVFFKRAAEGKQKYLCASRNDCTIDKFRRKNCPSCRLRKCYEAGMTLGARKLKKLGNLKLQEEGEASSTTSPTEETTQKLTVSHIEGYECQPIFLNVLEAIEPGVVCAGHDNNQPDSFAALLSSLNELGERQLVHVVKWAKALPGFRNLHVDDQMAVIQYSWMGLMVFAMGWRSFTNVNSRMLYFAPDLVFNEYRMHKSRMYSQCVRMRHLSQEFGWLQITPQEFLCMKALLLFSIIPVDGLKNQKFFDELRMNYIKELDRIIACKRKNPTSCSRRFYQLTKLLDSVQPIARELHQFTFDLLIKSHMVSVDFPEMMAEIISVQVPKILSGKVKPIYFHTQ

Take `Cc1sc2c(c1C)C(c1ccc(OC3CC4(CCN(c5ncc(C(=O)N[C@H]6C(C)(C)[C@H](Oc7ccc(C#N)c(Cl)c7)C6(C)C)cn5)CC4)C3)cc1)=N[C@@H](Cc1ncco1)c1nnc(C)n1-2` [B, reference compound]: the “Ratio of GI50's” value in data set [1] is reported as 5.3; with VCaP cells it was 1.3. For the same compound, the “ternary complex formation between compound, androgen receptor, and BRD4 protein in tumors” value in data set [2] was “observed”.

As to `COc1cc(O[C@H]2CC[C@H](NC(=O)c3ncc(N4CCC5(CCC(c6ccc(C7=N[C@@H](C)c8nnc(C)n8-c8sc(C)c(C)c87)cc6)CC5)C4)cn3)CC2)ccc1C#N` (some centres unmarked) [Compound I-102], the GI50 in data set [1] was below 0.5 µM; in the data set on T47D cells (Homo sapiens, T47D, 72 h) it was below 0.5 µM; in data set [3] (72 h), below 0.5 µM; in the data set on VCaP cells (Homo sapiens, VCaP, 72 h) it was below 0.5 µM.

Regarding `COc1cc(O[C@H]2CC[C@H](NC(=O)c3ccc(N4CCC5(CN(c6ccc(C7=N[C@@H](C)c8nnc(C)n8-c8sc(C)c(C)c87)cc6)CC5(F)F)C4)nn3)CC2)ccc1C#N` (some centres unmarked) [Compound I-103], the GI50 in data set [1] was below 0.5 µM; with T47D cells it was 0.5 to 1.5 µM; in data set [3] (72 h), below 0.5 µM; in the data set with VCaP cells (Homo sapiens, VCaP, 72 h) it was 0.5 to 1.5 µM.

Regarding `COc1cc(O[C@H]2CC[C@H](NC(=O)c3ccc(N4CCC5(CN(c6ccc(C7=N[C@@H](C)c8nnc(C)n8-c8sc(C)c(C)c87)cc6)CC5(F)F)C4)nn3)CC2)ccc1C#N` (some centres unmarked) [Compound I-104], the GI50 was below 0.5 µM in data set [1], 1.5 to 3 µM with T47D cells, 0.5 to 1.5 µM in data set [3] and 0.5 to 1.5 µM with VCaP cells (72 hours).

In the case of `COc1cc(O[C@H]2C(C)(C)[C@H](NC(=O)c3cnc(N4CCC5(CC4)CC(Oc4ccc(C6=N[C@@H](Cc7ncco7)c7nnc(C)n7-c7sc(C)c(C)c76)cc4)C5)nc3)C2(C)C)ccc1C#N` [Compound II-5 in Crystal Form B, N-[(1r,3r)-3-(4-cyano-3-methoxy-phenoxy)-2,2,4,4-tetramethyl-cyclobutyl]-2-[2-[4-[(9S)-4,5,13-trimethyl-9-(oxazol-2-ylmethyl)-3-thia-1,8,11,12-tetrazatricyclo[8.3.0.0^2,6]trideca-2 (6),4,7,10,12-pentaen-7-yl]phenoxy]-7-azaspiro[3.5]nonan-7-yl]pyrimidine-5-carboxamide Crystal Form B], the “relative stability of crystal forms” value in data set [4] is recorded as “converted to Compound II-5 in Crystal Form A”.

Take `Cc1sc2c(c1C)C(c1ccc(CC3CC4(CCN(c5ncc(C(=O)N[C@H]6C(C)(C)[C@H](Oc7ccc(C#N)c(OC(F)(F)F)c7)C6(C)C)cn5)CC4)C3)cc1)=N[C@@H](Cc1ncco1)c1nnc(C)n1-2` [II-1, N-[3-[4-cyano-3-(trifluoromethoxy)phenoxy]-2,2,4,4-tetramethyl-cyclobutyl]-2-[2-[[4-[(9S)-4,5,13-trimethyl-9-(oxazol-2-ylmethyl)-3-thia-1,8,11,12-tetrazatricyclo[8.3.0.0^2,6]trideca-2 (6),4,7,10,12-pentaen-7-yl]phenyl]methyl]-7-azaspiro[3.5]nonan-7-yl]pyrimidine-5-carboxamide]: the GI50 in data set [1] was below 0.5 µM; in the data set with T47D cells (Homo sapiens, T47D, 72 h), below 0.5 µM; in data set [3] (72 h) it was below 0.5 µM; in the data set with VCaP cells (Homo sapiens, VCaP, 72 h), above 3 µM.

For `COc1cc(O[C@H]2C(C)(C)[C@H](NC(=O)c3cnc(N4CCC5(CCN(c6ccc(C7=N[C@@H](C)c8nnc(C)n8-c8sc(C)c(C)c87)cc6)CC5)C4)nc3)C2(C)C)ccc1C#N` [II-4, N-[3-(4-cyano-3-methoxy-phenoxy)-2,2,4,4-tetramethyl-cyclobutyl]-2-[8-[4-[(9S)-4,5,9,13-tetramethyl-3-thia-1,8,11,12-tetrazatricyclo[8.3.0.0^2,6]trideca-2 (6),4,7,10,12-pentaen-7-yl]phenyl]-2,8-diazaspiro[4.5]decan-2-yl]pyrimidine-5-carboxamide], the GI50 in data set [1] was below 0.5 µM; with T47D cells (Homo sapiens, T47D, 72 h), below 0.5 µM; in data set [3] (72 h), below 0.5 µM; in the data set on VCaP cells (Homo sapiens, VCaP, 72 h) it was below 0.5 µM.

In the case of `COc1cc(O[C@H]2C(C)(C)[C@H](NC(=O)c3cnc(N4CCC5(CCC(c6ccc(C7=N[C@@H](C)c8nnc(C)n8-c8sc(C)c(C)c87)cc6)CC5)C4)nc3)C2(C)C)ccc1C#N` [II-7], the GI50 was below 0.5 µM in data set [1]; below 0.5 µM in the data set with T47D cells (Homo sapiens, T47D, 72 h); below 0.5 µM in data set [3] (72 h); 1.5 to 3 µM with VCaP cells (Homo sapiens, VCaP, 72 h).

Turning to `COc1cc(O[C@H]2C(C)(C)[C@H](NC(=O)c3cnc(N4CCC5(CC4)CC(Cc4ccc(C6=N[C@@H](Cc7ncco7)c7nnc(C)n7-c7sc(C)c(C)c76)cc4)C5)nc3)C2(C)C)ccc1C#N` [II-10, N-[3-(4-cyano-3-methoxy-phenoxy)-2,2,4,4-tetramethyl-cyclobutyl]-2-[2-[[4-[(9S)-4,5,13-trimethyl-9-(oxazol-2-ylmethyl)-3-thia-1,8,11,12-tetrazatricyclo[8.3.0.0^2,6]trideca-2 (6),4,7,10,12-pentaen-7-yl]phenyl]methyl]-7-azaspiro[3.5]nonan-7-yl]pyrimidine-5-carboxamide], the “Ratio of GI50's” value (in data set [1]; with VCaP cells) was 1 throughout. Besides, the GI50 is below 0.5 µM in data set [1]; below 0.5 µM with T47D cells (Homo sapiens, T47D, 72 h); 0.5 to 1.5 µM in data set [3] (72 h); below 0.5 µM with VCaP cells (Homo sapiens, VCaP, 72 h).

As to `COc1cc(O[C@H]2C(C)(C)[C@H](NC(=O)c3cnc(N4CCC5(CCC(c6ccc(C7=N[C@@H](Cc8ncco8)c8nnc(C)n8-c8sc(C)c(C)c87)cc6)CC5)C4)nc3)C2(C)C)ccc1C#N` [II-11, N-[(1r,3r)-3-(4-cyano-3-methoxy-phenoxy)-2,2,4,4-tetramethyl-cyclobutyl]-2-[8-[4-[(9S)-4,5,13-trimethyl-9-(oxazol-2-ylmethyl)-3-thia-1,8,11,12-tetrazatricyclo[8.3.0.0^2,6]trideca-2 (6),4,7,10,12-pentaen-7-yl]phenyl]-2-azaspiro[4.5]decan-2-yl]pyrimidine-5-carboxamide], the GI50 in data set [1] was below 0.5 µM; with T47D cells (Homo sapiens, T47D, 72 h), below 0.5 µM; in data set [3] (72 h), below 0.5 µM; in the data set on VCaP cells (Homo sapiens, VCaP, 72 h), below 0.5 µM.

As to `COc1cc(O[C@H]2C(C)(C)[C@H](NC(=O)c3cnc(N4CCC5(CCC(c6ccc(C7=N[C@@H](Cc8ncco8)c8nnc(C)n8-c8sc(C)c(C)c87)cc6)CC5)C4)nc3)C2(C)C)ccc1C#N` [II-12], the “Ratio of GI50's” value (in data set [1]; with VCaP cells) was 1 in each case. For the same compound, the concentration for 50% growth inhibition (GI50) (in data set [1]; in the data set on T47D cells; in data set [3]; with VCaP cells (72 hours)) was below 0.5 µM throughout.

For the origin of these results see patent US12668599B2, “Heterobifunctional compounds and methods of treating disease” (Halda Therapeutics OpCo, Inc., priority 2023, dated 2026).
